The test concerns the target SALDan (Alteromonas naphthalenivorans, UniProt F5Z5S7). Kind of test: Kinetics assay of wild-type recombinant SALDan (NADH appearance at 340 nm). Format: biochemical. The following applies: for App Vmax / App kcat / Km: aldehyde varied at NAD^+ 100 μM, enzyme 0.1 μM, for NAD^+: SAL fixed 50 μM; for Km: NAD^+ 0–500 μM, read-out: App Km. As to the method:
The activity of the purified proteins was determined using SAL as a substrate. A reaction volume of 500 μL was prepared in a microfuge tube containing purified SALDan (0.1 μM), SAL (100 μM), and NAD^+ (100 μM) dissolved in 50 mM HEPES (pH 7.5) containing 150 mM NaCl. The SALDan activity was monitored as the rate of appearance of NADH at 340 nm spectrophotometrically. The specific activity of the enzyme (units.mg^−1.min^−1) was expressed as the amount of enzyme required to produce 1 μM of NADH under the assay conditions. The influence of pH on the activity was determined using the protocol described above, with the exception of replacing the […] buffer with 50 mM sodium acetate (pH 3.0–5.0), 50 mM 2-(N-morpholino)ethanesulfonic acid (pH 5.0–7.5), 50 mM HEPES (pH 8.0–8.5), 50 mM glycine (pH 9.0–10.0), or 50 mM sodium phosphate (pH 11.0)[52]. All assays were performed at the optimal temperature. To determine the influence of temperature on the enzymatic activity, the reactions were performed at 15, 20, 25, 30, 35, 40, and 45 °C, respectively.
For kinetic studies of aldehydes, the initial velocities of the enzymatic reactions were examined by varying the concentrations of various aromatic as well as aliphatic aldehydes in the presence of NAD^+ (100 μM) and the enzyme (0.1 μM) under optimal conditions. For substrates that absorb at 340 nm, thus interfering with the calculation of the initial rate, their molar coefficients (ε) were calculated as described previously[64] and are presented in Table S1. The apparent kinetic parameters were calculated using the equation: […]
The apparent kinetic parameters for NAD^+ were determined at a fixed concentration of SAL (50 μM) and a varying concentration of NAD^+ (0–500 μM). The apparent Km and Vmax values were calculated by using the equation: […]
All the activity data were determined by three separate experiments with at least three technical replicates.

[1] abbreviates: wild-type, “—” means not observed, read-out: App Ki (substrate inhibition).

What is called Km is the substrate concentration at which the rate is half of its maximum.

Molecules are shown by their SMILES. Like-named read-outs stand apart in the source and are kept apart here.

SALDan, sequence (F5Z5S7 entry or part of it): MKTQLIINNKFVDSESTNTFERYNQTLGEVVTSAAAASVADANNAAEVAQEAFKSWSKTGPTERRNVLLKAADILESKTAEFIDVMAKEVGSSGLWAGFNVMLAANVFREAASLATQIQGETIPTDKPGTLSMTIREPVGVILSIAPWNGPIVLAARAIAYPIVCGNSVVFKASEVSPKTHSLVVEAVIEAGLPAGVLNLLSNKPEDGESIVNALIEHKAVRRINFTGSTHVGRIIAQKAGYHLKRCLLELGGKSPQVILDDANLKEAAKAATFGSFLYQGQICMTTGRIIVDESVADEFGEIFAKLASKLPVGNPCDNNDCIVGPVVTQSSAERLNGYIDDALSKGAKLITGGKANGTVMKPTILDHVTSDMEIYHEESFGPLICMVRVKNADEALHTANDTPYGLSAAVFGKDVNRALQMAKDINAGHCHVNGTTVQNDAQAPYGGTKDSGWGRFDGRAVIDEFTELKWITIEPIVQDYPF

As for `O=Cc1ccc2ccccc2c1` [2-Naphthaldehyde], under setting [1], the Ki worked out at 249 ± 22.5 µM. Consider `CCCC=O` [Butyraldehyde], for which, under “wild-type”, the “App Vmax” value was 5.9 ± 1.0 U/mg, the App kcat worked out at 14.3 ± 2.8 s⁻¹ and the Michaelis constant (Km) came to 3.2 ± 0.235 mM. On the same counts, the results for `C=O` [Formaldehyde] are 3.3 ± 0.7 U/mg, 8.6 ± 2.2 s⁻¹ and 12.4 ± 1.82 mM. Regarding `O=Cc1cccc(Cl)c1` [3-Chlorobenzaldehyde], under setting [1], the Ki was found to be 124 ± 20.1 µM.

In the case of `O=Cc1ccc(Cl)cc1` [4-Chlorobenzaldehyde], the Ki under setting [1] stood at 132 ± 18.9 µM.

For the molecule `O=Cc1ccccc1Cl` [2-Chlorobenzaldehyde], the Ki was 356 ± 40.1 µM.

For the origin of these results see PMC5324060, “Evolutionary, computational, and biochemical studies of the salicylaldehyde dehydrogenases in the naphthalene degradation pathway” (Scientific Reports, 2017).
